According to US20230172897A1, “METHODS OF TREATING BREAST CANCERS WITH SELECTIVE ANDROGEN RECEPTOR MODULATORS AND ADDITIONAL THERAPEUTIC AGENTS” (VERU, INC., priority 2021, published 2023):
Where “and” joins values, the source holds several entries; their conditions need not be identical. Equal values may be shown once.

Tested on: metastatic or locally advanced ER+/AR+ breast cancer
Experiment: Phase 2 clinical trial (G200802), 9 mg or 18 mg daily
Type: in vivo, postmenopausal women
Settings: for Best overall objective tumor response: CR (number) / Best overall objective tumor response: PR (number): all evaluable patients; for Average rPFS / Clinical Benefit Response Rate / Clinical Benefit Responses (CR + PR + SD) / Median rPFS / Objective Response Rate / Objective Responses (CR + PR): measurable disease at baseline
Description: Each dose arm was treated independently, and each assessed for efficacy using Simon's two-stage (optimal) design (Simon R. Optimal two-stage designs for Phase 2 clinical trials. Controlled Clinical Trials 1989; 10: 1-10). Subjects were randomized in a 1:1 fashion to one of the two dose arms.
Randomization was stratified by subjects presenting with bone only metastases and all other subjects, and further by setting of immediately preceding therapy (adjuvant setting or metastatic setting) in order to balance the proportion of subjects with these presenting features in each dose arm.
Thirty-six to eighty-eight (36-88) subjects with centrally confirmed AR+ who received at least one dose of study drug (evaluable subjects) were needed for primary efficacy analysis purposes and were a subset of the full analysis set (FAS). Fifty patients in the 9 mg cohort and 52 patients in the 18 mg cohort met these criteria. […] Other statistical parameters that were part of the sample size calculation are α=0.025 (one-sided) and power=90%. The first stage in each study arm was assessed among the first 18 evaluable subjects. Greater than 3/18 subjects achieved CB (defined as CR, PR, or SD) at week 24, and both arms proceeded to the second stage of recruitment up to a total of 44 evaluable subjects per arm. Otherwise, the arm would have been discontinued for lack of efficacy. Statistical significance, i.e., rejection of the null hypothesis of an unacceptably low CBR of ≤10% in favor of the alternative hypothesis that indicated the higher rate, ≥30%, was more likely, would be declared if at least 9/44 subjects achieved CB at week 24 in that arm.
These patients on the study had measurable disease at baseline and an AR staining prior to entry into the study. The radiographic imaging in this patient population was done every 12 weeks (2.7 months). Therefore, the minimum radiographic progression free survival (rPFS) that could be determined is approximately 2.7 months. 90% of the patients in the study had previously received non-endocrine based chemotherapy. The patients in this study had failed an average of 2 prior treatment lines for metastatic disease (range=0-5). FIG. 43 provides a scatterplot for the patients in this study with regard to the correlation between % AR-positive staining at baseline (% AR staining) and rPFS. […] However, in patients with greater than or equal to 40% AR-positive staining, the rPFS was delayed to variable extents (scatter plot pattern) in many to most cases. A positive correlation between rPFS and % AR staining was seen above the threshold of 40% AR staining. To explore this positive correlation further, several subgroups of AR % staining were defined and analyzed for metrics of efficacy, as shown in Table 14.

SMILES: C[C@](O)(COc1ccc(C#N)cc1)C(=O)Nc1ccc(C#N)c(C(F)(F)F)c1 [Formula IX, (S)—N-(4-Cyano-3-(trifluoromethyl)phenyl)-3-(4-cyanophenoxy)-2-hydroxy-2-methylpropanamide]
- clinical benefit rate at 6 months (9 mg): 32%
- Quality of life assessments (9 mg and 18 mg cohorts): significant improvement from baseline
- tolerability (9 mg and 18 mg doses): well tolerated
- response rate in patients previously treated with palbociclib and failed (9 mg arm, 3 patients): 33%
- Median duration of clinical benefit (9 mg group): not reached
- Best overall objective tumor response: CR (number) (9 mg, post-hoc): 3
- Best overall objective tumor response: PR (number) (9 mg, post-hoc): 8
- Average rPFS (9 mg, % AR staining 20-40): 2.51 months
- Clinical Benefit Response Rate (9 mg, % AR staining 20-40): 22%
- Clinical Benefit Responses (CR + PR + SD) (9 mg, % AR staining 20-40): 2
- Median rPFS (9 mg, % AR staining 20-40): 2.77 months
- Objective Response Rate (9 mg, % AR staining 20-40): 0%
- Objective Responses (CR + PR) (9 mg, % AR staining 20-40): 0
- Average rPFS (9 mg, % AR staining 40-60): 4.62 months
- Clinical Benefit Response Rate (9 mg, % AR staining 40-60): 86%
- Clinical Benefit Responses (CR + PR + SD) (9 mg, % AR staining 40-60): 6
- Median rPFS (9 mg, % AR staining 40-60): 2.93 months
- Objective Response Rate (9 mg, % AR staining 40-60): 43%
- Objective Responses (CR + PR) (9 mg, % AR staining 40-60): 3
- Average rPFS (9 mg, % AR staining 60-80): 8.10 months
- Clinical Benefit Response Rate (9 mg, % AR staining 60-80): 80%
- Clinical Benefit Responses (CR + PR + SD) (9 mg, % AR staining 60-80): 8
- Median rPFS (9 mg, % AR staining 60-80): 5.60 months
- Objective Response Rate (9 mg, % AR staining 60-80): 60%
- Objective Responses (CR + PR) (9 mg, % AR staining 60-80): 6
- Average rPFS (9 mg, % AR staining <20): 2.83 months
- Clinical Benefit Response Rate (9 mg, % AR staining <20): 15%
- Clinical Benefit Responses (CR + PR + SD) (9 mg, % AR staining <20): 2
- Median rPFS (9 mg, % AR staining <20): 2.70 months
- Objective Response Rate (9 mg, % AR staining <20): 0%
- Objective Responses (CR + PR) (9 mg, % AR staining <20): 0
- Average rPFS (9 mg, % AR staining <40): 2.7 months and 2.70 months
- Clinical Benefit Response Rate (9 mg, % AR staining <40): 18%
- Clinical Benefit Responses (CR + PR + SD) (9 mg, % AR staining <40): 4
- Median rPFS (9 mg, % AR staining <40): 2.72 months
- Objective Responses (CR + PR) (9 mg, % AR staining <40): 0
- Average rPFS (9 mg, % AR staining <60): 3.17 months
- Clinical Benefit Response Rate (9 mg, % AR staining <60): 34%
- Clinical Benefit Responses (CR + PR + SD) (9 mg, % AR staining <60): 10
- Median rPFS (9 mg, % AR staining <60): 2.77 months
- Objective Response Rate (9 mg, % AR staining <60): 10%
- Objective Responses (CR + PR) (9 mg, % AR staining <60): 3
- Average rPFS (9 mg, % AR staining >40): 7.15 months
- Clinical Benefit Response Rate (9 mg, % AR staining >40): 80%
- Clinical Benefit Responses (CR + PR + SD) (9 mg, % AR staining >40): 20
- Median rPFS (9 mg, % AR staining >40): 5.47 months
- Objective Responses (CR + PR) (9 mg, % AR staining >40): 12
- Average rPFS (9 mg, % AR staining >60): 8.14 months
- Clinical Benefit Response Rate (9 mg, % AR staining >60): 78%
- Clinical Benefit Responses (CR + PR + SD) (9 mg, % AR staining >60): 14
- Median rPFS (9 mg, % AR staining >60): 5.60 months
- Objective Response Rate (9 mg, % AR staining >60): 50%
- Objective Responses (CR + PR) (9 mg, % AR staining >60): 9
- Average rPFS (9 mg, % AR staining >80): 8.18 months
- Clinical Benefit Response Rate (9 mg, % AR staining >80): 75%
- Clinical Benefit Responses (CR + PR + SD) (9 mg, % AR staining >80): 6
- Median rPFS (9 mg, % AR staining >80): 6.23 months
- Objective Response Rate (9 mg, % AR staining >80): 38%
- Objective Responses (CR + PR) (9 mg, % AR staining >80): 3
- median duration of response in patients with an objective tumor response (9 mg, post-hoc): 8.18 months
- responders with duration of response >12 months (9 mg, post-hoc): 25%
- responders with duration of response ≥6 months (9 mg, post-hoc): 67%
- clinical benefit rate at 6 months (18 mg): 29%
- response rate in patients previously treated with palbociclib and failed (18 mg arm, 6 patients): 33%
- Median duration of clinical benefit (18 mg group): 14.1 months
- Best overall objective tumor response: CR (number) (18 mg, post-hoc): 1
- Best overall objective tumor response: PR (number) (18 mg, post-hoc): 5
- patients with an objective response after progression on estrogen blocking agents and CDK 4/6 inhibitor (AR nuclei staining ≥40% (7 patients), post-hoc): 3 patients
- objective response rate after progression on estrogen blocking agents and CDK 4/6 inhibitor (AR nuclei staining ≥60% subgroup (4 patients)): 75%
- first stage: subjects achieving CB at week 24 (both arms (9 mg, 18 mg), first 18 evaluable subjects): Greater than 3/18
